Columns and labels:
in vitro = settings: dog
[1] = Stability of QC samples after three freeze-thaw cycles (HPLC); assay type: physicochemical; settings: three freeze (−20 °C)-thaw cycles, percentage remains
Procedure: The stock solutions of the six alkaloids were diluted to three concentrations (low, medium and high) as quality control (QC) samples. Accuracy, precision and stability of QC samples were validated. Accuracy and intraday precision were evaluated by determining the QC samples in three replicates on the same day, while interday precision was assessed by repeated analysis of the same QC samples over three consecutive days. Precision was estimated by RSD, which should not exceed 15%. Accuracy was assessed by comparison of the calculated mean concentrations with the spiked concentrations, and the acceptable range should be within 85–115%. The absolute recoveries of six alkaloids were determined by comparing the peak areas of analytes in QC samples with those of the standard solutions in MeOH with equivalent concentrations.

[2] = Bidirectional transport across MDCK-pHaMDR cell monolayer (in vitro BBB model); settings: dog; for recovery at 90 min, 40 µM: MDCK-MDR1, Recovery Rate
[3] = tested on: MDCK-pHaMDR cell monolayer; settings: for intracellular accumulation rates: dog, MDCK-MDR1, 90 min, 40 µM; for BBB permeability classification: MDCK-MDR1
[4] = tested on: MDCK-pHaMDR cell monolayer; assay: Bidirectional transport across MDCK-pHaMDR cell monolayer (in vitro BBB model); settings: for Intracellular Accumulation / Efflux Ratio (Papp BL→AP/Papp AP→BL): 40 μM, 90 min; for transport mechanism: time- (30–180 min) and concentration- (20–120 μM) dependence
P-gp = assay: in vitro
Procedure: The cell monolayers were washed twice with prewarmed HBSS before the experiments were carried out. The HBSS medium in the AP side (0.5 mL, for absorption transport) or BL side (1.5 mL, for efflux transport) was replaced with different test compounds. The plates were shaken at 55 rpm for 90 min at 37 °C in a water bath. Samples were quantitatively collected from both sides of the cell monolayer, immediately frozen, lyophilized, and then preserved below −20 °C. To measure the intracellular amounts, the cell monolayers were lyophilized after three freeze (−20 °C)–thaw (room temperature) cycles and preserved below –20 °C. […] The tested concentrations of alkaloids 1–6 were 40 µM. The function of P-gp were tested by the transport of Rh123 at 10 µM in the presence and absence of verapamil (100 µM) undertaken as described above.
The verapamil inhibition experiment was carried out for alkaloids 1 and 3. The cells were pre-incubated with 100 µM of verapamil for 30 min before drug transport assays. Then verapamil was added to both sides, and 40 µM of test alkaloid was added to AP or BL side.
Papp in AP→BL or BL→AP direction of each alkaloid was calculated based on the following equation:Papp = dQ/dt/A/C0 (cm/s) where Q is the accumulation quantity of the alkaloid in the receiver side (μmol), dQ/dt is the linear appearance rate of the alkaloid in the receiver side (μmol/s), C0 is the initial concentration in the donor side (µM), and A is the membrane surface area (cm^2). All of the experiments were conducted in six duplications and data were expressed as the mean ± SD.

[5] = MDCK-MDR1, Papp AP→BL, 40 μM, 90 min
[6] = dog, MDCK-MDR1, with verapamil 100 µM

SMILES	Papp A→B at 90 min, 40 µM (in vitro; MDCK-MDR1) [×10⁻⁶ cm/s]	Papp B→A at 90 min, 40 µM (in vitro; MDCK-MDR1) [×10⁻⁶ cm/s]	Stability ([1]; QC sample 5 μM) [%]	Stability ([1]; QC sample 60 μM) [%]	Stability ([1]; QC sample 120 μM) [%]	recovery at 90 min, 40 µM ([2]; AP→BL, 40 μM, 90 min) [%]	recovery at 90 min, 40 µM ([2]; BL→AP, 40 μM, 90 min) [%]	Papp B→A (in vitro; MDCK-MDR1) [×10⁻⁶ cm/s]	Papp A→B (in vitro; [5]) [×10⁻⁶ cm/s]	Intracellular Accumulation ([4]; BL→AP) [%]	other results
C=C[C@H]1CN2CC[C@@]3(C(=O)Nc4ccccc43)[C@@H]2C[C@@H]1/C(=C\OC)C(=O)OC [alkaloid 4, isocorynoxeine]	11.1 ± 1.49	20.7 ± 1.03	107.15 ± 5.06	102.72 ± 1.97	102.02 ± 2.43	93 ± 1.4	98.47 ± 0.82				Papp at 90 min, 40 µM (in vitro; MDCK-MDR1): ~10 ×10⁻⁶ cm/s; efflux ratio at 90 min, 40 µM ([2]; MDCK-MDR1, Efflux Ratio (Papp BL→AP/Papp AP→BL), 40 μM, 90 min): < 2; intracellular accumulation rates [3]: less than 0.4%
CC[C@H]1CN2CC[C@@]3(C(=O)Nc4ccccc43)[C@@H]2C[C@@H]1/C(=C\OC)C(=O)OC [alkaloid 2, isorhynchophylline]			108.52 ± 1.08	100.08 ± 2.26	105.21 ± 3.28	94.3 ± 1.43	101 ± 1.89	27.7 ± 0.93	17.7 ± 1.2	0.37 ± 0.06	Papp (in vitro; MDCK-MDR1): ~10 ×10⁻⁶ cm/s; Intracellular Accumulation ([4]; AP→BL): 0.24 ± 0.04%; transport mechanism [4]: passive diffusion
Cn1c(=O)c2c(ncn2C)n(C)c1=O [caffeine, reference compound]											Papp at 90 min ([2]; MDCK-MDR1): 30 ×10⁻⁶ cm/s
CC[C@H]1CN2CCc3c([nH]c4ccccc34)[C@H]2C[C@@H]1/C(=C\OC)C(=O)OC [alkaloid 5, hirsutine]			106.1 ± 3.57	101.9 ± 6.51	100.5 ± 4.86	89.3 ± 6.15	104 ± 1.94	14.1 ± 0.73	15.1 ± 1.32	6.19 ± 0.73	Papp (in vitro; MDCK-MDR1): ~10 ×10⁻⁶ cm/s; transport mechanism [4]: passive diffusion
C=C[C@H]1CN2CC[C@]3(C(=O)Nc4ccccc43)[C@@H]2C[C@@H]1/C(=C\OC)C(=O)OC [alkaloid 3, corynoxeine]	1.21 ± 0.14	49.7 ± 4.71	106.67 ± 5.82	102.37 ± 1.65	101.52 ± 2.26	96.4 ± 1.17	99.6 ± 1.57				Papp A→B at 90 min, 40 µM (P-gp; dog, MDCK-MDR1): 17.2 ± 2.45 ×10⁻⁶ cm/s; Papp B→A at 90 min, 40 µM (P-gp; dog, MDCK-MDR1): 17.5 ± 0.82 ×10⁻⁶ cm/s; efflux ratio at 90 min, 40 µM (P-gp; dog, MDCK-MDR1, with verapamil 100 µM, Efflux Ratio (Papp BL→AP/Papp AP→BL), 40 μM alkaloid with 100 μM verapamil, 90 min): < 2; Papp A→B (in vitro; MDCK-MDR1): ~1 ×10⁻⁶ cm/s; Efflux Ratio (Papp BL→AP/Papp AP→BL) [4]: 40.94; Efflux Ratio (Papp BL→AP/Papp AP→BL) ([4]; listed as corynoxeine (3)): above 2; BBB permeability classification [3]: moderate permeability; intracellular accumulation rates [3]: less than 0.4%
CC[C@H]1CN2CC[C@]3(C(=O)Nc4ccccc43)[C@@H]2C[C@@H]1/C(=C\OC)C(=O)OC [alkaloid 1, rhynchophylline]			96.32 ± 3.30	96.86 ± 4.64	102.59 ± 3.38	99.9 ± 1.15	102.2 ± 0.47	42.3 ± 2.48	4.37 ± 0.37	0.40 ± 0.04	Papp A→B at 90 min, 40 µM (P-gp; dog, MDCK-MDR1): 22.2 ± 6.41 ×10⁻⁶ cm/s; Papp B→A at 90 min, 40 µM (P-gp; dog, MDCK-MDR1): 18.1 ± 1.09 ×10⁻⁶ cm/s; P-gp substrate status (P-gp; from verapamil (100 µM) inhibition of efflux): substrates of P-gp; Papp A→B (in vitro; MDCK-MDR1, Papp AP→BL (level), AP side to BL side): ~1 ×10⁻⁶ cm/s; Intracellular Accumulation ([4]; AP→BL): 0.36 ± 0.05%; BBB permeability classification [3]: moderate permeability
C=C[C@H]1CN2CCc3c([nH]c4ccccc34)[C@H]2C[C@@H]1/C(=C\OC)C(=O)OC [alkaloid 6, hirsuteine]	14.9 ± 1.83	11.3 ± 1.8	106.89 ± 3.01	103.80 ± 5.92	102.23 ± 4.19	88.9 ± 5.99	104 ± 1.17				Papp at 90 min, 40 µM (in vitro; MDCK-MDR1): ~10 ×10⁻⁶ cm/s
COC(=O)c1ccccc1-c1c2ccc(=N)cc-2oc2cc(N)ccc12 [Rh123, Rhodamine 123, reference compound]											Papp A→B at 90 min, 10 µM (P-gp; dog, MDCK-MDR1): 0.843 ± 0.195 ×10⁻⁶ cm/s; Papp B→A at 90 min, 10 µM (P-gp; dog, MDCK-MDR1): 5.8 ± 0.259 ×10⁻⁶ cm/s; efflux ratio at 90 min, 10 µM (P-gp; dog, MDCK-MDR1, Efflux Ratio (Papp BL→AP/Papp AP→BL), Rh123 10 μM, 90 min, absence of verapamil): 6.88; Papp A→B at 90 min, 10 µM (P-gp; [6]): 1.27 ± 0.213 ×10⁻⁶ cm/s; Papp B→A at 90 min, 10 µM (P-gp; [6]): 1.71 ± 0.099 ×10⁻⁶ cm/s; efflux ratio at 90 min, 10 µM (P-gp; dog, MDCK-MDR1, with verapamil 100 µM, Efflux Ratio (Papp BL→AP/Papp AP→BL), Rh123 10 μM with 100 μM verapamil, 90 min): 1.34
